ChEMBL document CHEMBL5247656, “Discovery of a Potent, Cooperative, and Selective SOS1 PROTAC ZZ151 with In Vivo Antitumor Efficacy in KRAS-Mutant Cancers” (J Med Chem, 2023)
Calls of active or inactive are those of the source. No cut-off for these calls is given here.

Experiments:
[1] = target: T1, von Hippel-Lindau disease tumor suppressor/Son of sevenless homolog 1 (Homo sapiens) (UniProt Q07889+P40337); assay: PROTAC activity at VHL/SOS1 in human NCI-H358 cells harboring KRAS G12C mutant assessed as induction of SOS1 degradation at 1 uM preincubated with (R)-1-(4-(4-((1-(3-amino-5-(trifluoromethyl)phenyl)ethyl)amino)-7-methoxy-2-methylquinazolin-6-yl)piperidin-1-yl)ethanone for 4 hrs followed by compound treatment and measured after 24 hrs by Immunoblot analysis; assay type: cell-based
[2] = target: T1, von Hippel-Lindau disease tumor suppressor/Son of sevenless homolog 1 (Homo sapiens); assay: PROTAC activity at VHL/SOS1 in human A549 cells harboring KRAS G12S mutant assessed as induction of SOS1 degradation by measuring maximal efficacy at 1 to 2000 nM incubated for 24 hrs by Immunoblot analysis relative to control; assay type: cell-based; details: dose 1-2000 nM
ASPC1 [3] = assay: Downregulation of ALKBH4 in human ASPC1 cells at 1 uM incubated for 6 hrs by quantitative proteomics analysis; assay type: functional, cell-based
[4] = target: T1, von Hippel-Lindau disease tumor suppressor/Son of sevenless homolog 1 (Homo sapiens); assay: PROTAC activity at VHL/SOS1 in human NCI-H358 cells harboring KRAS G12C mutant assessed as induction of SOS1 degradation at 1 uM incubated for 2 to 4 hrs by Immunoblot analysis; assay type: cell-based; details: time 2-4 hrs
[5] = target: von Hippel-Lindau disease tumor suppressor/Son of sevenless homolog 1/Elongin-B/Elongin-C (Homo sapiens) (UniProt Q07889+P40337+Q15370+Q15369); assay: Binding affinity to GST tagged human SOS1(564 to 1049 residues)-6his tagged human VHL (54 to 213 residues)-human ElonginC (17 to 112 residues)-human ElonginB (1 to 104 residues) expressed in Escherichia coli BL21 (DE3) cells assessed as ternary complex formation by measuring maximal HTRF signals incubated for 15 mins by HTRF analysis
[6] = target: T1, von Hippel-Lindau disease tumor suppressor/Son of sevenless homolog 1 (Homo sapiens); assay: PROTAC activity at VHL/SOS1 in human SW620 cells harboring KRAS G12V mutant assessed as induction of SOS1 degradation by measuring maximal efficacy at 1 to 2000 nM incubated for 24 hrs by Immunoblot analysis relative to control; assay type: cell-based; details: dose 1-2000 nM
[7] = target: T1, von Hippel-Lindau disease tumor suppressor/Son of sevenless homolog 1 (Homo sapiens); assay: In vivo PROTAC activity at VHL/SOS1 in human ASPC1 cells harboring KRAS G12D mutant xenografted BALB/c nude mouse assessed as induction of SOS1 degradation administered intraperitoneally once daily for 3 weeks by immunohistochemistry analysis; assay type: functional; details: dose 10-20 mg/kg, route ip
CAL-62 = assay: Antiproliferative activity against human CAL-62 cells harboring KRAS G12R mutant assessed as inhibition of cell proliferation incubated for 7 days by CellTiterGlo-3D proliferation assay; assay type: functional, cell-based; details: time 7.0 day
[8] = target: T1, von Hippel-Lindau disease tumor suppressor/Son of sevenless homolog 1 (Homo sapiens); assay: PROTAC activity at VHL/SOS1 in human NCI-H460 cells harboring KRAS Q61H mutant assessed as induction of SOS1 degradation by measuring maximal efficacy at 1 to 2000 nM incubated for 24 hrs by Immunoblot analysis relative to control; assay type: cell-based; details: dose 1-2000 nM
LoVo = assay: Antiproliferative activity against human LoVo cells harboring KRAS G13D mutant assessed as inhibition of cell proliferation incubated for 7 days by CellTiterGlo-3D proliferation assay; assay type: functional, cell-based; details: 168 h
[9] = target: von Hippel-Lindau disease tumor suppressor/Son of sevenless homolog 1 (Homo sapiens, UniProt P40337+Q07889, G12C); assay: PROTAC activity at VHL/SOS1 in human MIA PaCa-2 cells harboring KRAS G12C mutant assessed as induction of SOS1 degradation incubated for 24 hrs by Immunoblot analysis; assay type: cell-based; details: pooled result: one value given for 16 cell lines, strains, targets or settings
[10] = target: T1, von Hippel-Lindau disease tumor suppressor/Son of sevenless homolog 1 (Homo sapiens); assay: In vivo PROTAC activity at VHL/SOS1 in human SW620 cells harboring KRAS G12V mutant xenografted BALB/c nude mouse assessed as decrease in phosphorylated ERK expression at 10 to 20 mg/kg, ip administered once daily for 2 weeks by Immunoblot analysis; assay type: functional, organism-based; details: SW-620, dose 10-20 mg/kg
[11] = target: T1, von Hippel-Lindau disease tumor suppressor/Son of sevenless homolog 1 (Homo sapiens); assay: PROTAC activity at VHL/SOS1 in human NCI-H358 cells assessed as induction of SOS1 protein degradation at 1.0 uM incubated for 24 hrs by Immunoblot analysis relative to control; assay type: cell-based
[12] = target: T1, von Hippel-Lindau disease tumor suppressor/Son of sevenless homolog 1 (Homo sapiens); assay: In vivo PROTAC activity at VHL/SOS1 in human ASPC1 cells harboring KRAS G12D mutant xenografted BALB/c nude mouse assessed as decrease in phosphorylated ERK expression at 10 to 20 mg/kg, ip administered once daily for 3 weeks by Immunoblot analysis; assay type: functional, organism-based; details: dose 10-20 mg/kg
[13] = target: T1, von Hippel-Lindau disease tumor suppressor/Son of sevenless homolog 1 (Homo sapiens); assay: PROTAC activity at VHL/SOS1 in human NCI-H358 cells harboring KRAS G12C mutant assessed as induction of SOS1 degradation at 1 uM preincubated with VHL ligand for 4 hrs followed by compound treatment and measured after 24 hrs by Immunoblot analysis; assay type: cell-based
[14] = target: T1, von Hippel-Lindau disease tumor suppressor/Son of sevenless homolog 1 (Homo sapiens); assay: PROTAC activity at VHL/SOS1 in human Lovo cells harboring KRAS G13D mutant assessed as induction of SOS1 degradation by measuring maximal efficacy at 1 to 2000 nM incubated for 24 hrs by Immunoblot analysis relative to control; assay type: cell-based; details: dose 1-2000 nM
[15] = target: von Hippel-Lindau disease tumor suppressor/Son of sevenless homolog 1 (Homo sapiens, UniProt P40337+Q07889, G12R); assay: PROTAC activity at VHL/SOS1 in human CAL-62 cells harboring KRAS G12R mutant assessed as induction of SOS1 degradation incubated for 24 hrs by Immunoblot analysis; assay type: cell-based
[16] = Half-life in BALB/c mouse at 10 mg/kg, ip measured upto 24 hrs by LC-MS/MS analysis; assay type: ADME, organism-based; details: in vivo
[17] = target: T1, von Hippel-Lindau disease tumor suppressor/Son of sevenless homolog 1 (Homo sapiens); assay: PROTAC activity at VHL/SOS1 in human CAL-62 cells harboring KRAS G12R mutant assessed as induction of SOS1 degradation by measuring maximal efficacy at 1 to 2000 nM incubated for 24 hrs by Immunoblot analysis relative to control; assay type: cell-based; details: dose 1-2000 nM
[18] = target: T1, von Hippel-Lindau disease tumor suppressor/Son of sevenless homolog 1 (Homo sapiens); assay: In vivo PROTAC activity at VHL/SOS1 in human SW620 cells harboring KRAS G12V mutant xenografted BALB/c nude mouse assessed as induction of SOS1 degradation at 10 to 20 mg/kg, ip administered once daily for 2 weeks by Immunoblot analysis; assay type: functional, organism-based; details: SW-620, dose 10-20 mg/kg
[19] = target: T1, von Hippel-Lindau disease tumor suppressor/Son of sevenless homolog 1 (Homo sapiens); assay: PROTAC activity at VHL/SOS1 in human NCI-H358 cells assessed as induction of SOS1 protein degradation by measuring maximal efficacy at 2 to 2000 nM incubated for 24 hrs by Immunoblot analysis relative to control; assay type: cell-based; details: dose 2-2000 nM
[20] = target: T1, von Hippel-Lindau disease tumor suppressor/Son of sevenless homolog 1 (Homo sapiens); assay: PROTAC activity at VHL/SOS1 in human HCT-116 cells harboring KRAS G13D mutant assessed as induction of SOS1 degradation at 1 uM incubated for 2 to 4 hrs by Immunoblot analysis; assay type: cell-based; details: time 2-4 hrs
[21] = Toxicity in BALB/c nude mouse xenografted with human SW620 cells harboring KRAS G12V mutant assessed as body weight loss at 10 to 20 mg/kg, ip administered once daily for 2 weeks; assay type: organism-based, SW-620; details: in vivo, 336 h, dose 10-20 mg/kg
[22] = target: T1, von Hippel-Lindau disease tumor suppressor/Son of sevenless homolog 1 (Homo sapiens); assay: PROTAC activity at VHL/SOS1 in human ASPC1 cells harboring KRAS G12D mutant assessed as induction of SOS1 degradation by measuring maximal efficacy at 1 to 2000 nM incubated for 24 hrs by Immunoblot analysis relative to control; assay type: cell-based; details: dose 1-2000 nM
A549 = assay: Antiproliferative activity against human A549 cells harboring KRAS G12S mutant assessed as inhibition of cell proliferation incubated for 7 days by CellTiterGlo-3D proliferation assay; assay type: functional, cell-based; details: A549, 168 h
ASPC1 [23] = assay: Downregulation of ZCCHC10 in human ASPC1 cells at 1 uM incubated for 6 hrs by quantitative proteomics analysis; assay type: functional, cell-based

## COc1cc2nc(C)nc(N[C@H](C)c3cc(N)cc(C(F)(F)F)c3)c2cc1C1CCN(C(=O)CCCCCC(=O)N[C@H](C(=O)N2C[C@H](O)C[C@H]2C(=O)N[C@@H](C)c2ccc(-c3scnc3C)cc2)C(C)(C)C)CC1
[1]
  Activity: inactive
[2]
  Emax: > 95%
ASPC1 [3]
  Activity: Active
[4]
  Activity: Active
[5]
  Activity: Active
[6]
  Emax: > 95%
[7]
  Activity: Dose-Dependent Effect
CAL-62
  inhibition: inactive
[8]
  Emax: > 95%
LoVo
  IC50: 0.0445 µM
[9]
  EC50: 0.00841 µM
[10]
  Activity: Active
[11]
  Activity: 98.2%
[12]
  Activity: Active
[13]
  Activity: inactive
[14]
  Emax: > 95%
[15]
  EC50: 0.015 µM
[16]
  half-life: 9.69 h
[17]
  Emax: > 95%
[18]
  Activity: Active
[19]
  Emax: 100%
[20]
  Activity: Active
[21]
  Activity: Non-Toxic
[22]
  Emax: > 95%
A549
  IC50: 0.105 µM
ASPC1 [23]
  Activity: Active
